SMILES strings stand for the structures.

Series [1] in a line: Cytotoxicity against MDCK cells assessed as minimum cytotoxic concentration after 4 days by MTS assay. The series is classed as cell-based, Canis lupus familiaris. The settings on record: dog.
In series [2] the test system is Influenza A virus H3N2. Nature of the series: Antiviral activity against IInfluenza A virus H3N2 A/HK/7/87 infected in MDCK cells after 4 days by MTS assay. Type of series: functional, organism-based. Conditions: A/HK/7/87, MDCK, 96 h. On the technique in general: Formazan colour is commonly taken as a measure of viable cells.
The nature of series [3]: Cytotoxicity against MDCK cells assessed as reduction in cell viability after 4 days by MTS assay. Type of series: cell-based, Canis lupus familiaris. Conditions: dog.
Series [4] relates to Influenza A virus H3N2. Nature of the series: Antiviral activity against Influenza A virus H3N2 A/HK/7/87 infected in MDCK cells assessed as reduction in virus induced cytopathic effect after 4 days by microscopy based method. Type of series: functional, organism-based. The settings on record: A/HK/7/87, MDCK, 96 h.
Series [5] in a line: Inhibition of influenza H3N2 A/X-31 hemagglutinin 3 expressed in HeLa cells assessed as polykaryon formation preincubated for 15 mins and further incubated for 15 mins with acidic buffer containing compounds at pH 5.2 by giemsa staining based microscopic analysis. Type of series: cell-based, Influenza A virus (A/X-31(H3N2)). The settings on record: Influenza A virus.
Series [6] can be described thus: Selectivity index, ratio of CC50 for MDCK cells to EC50 for antiviral activity against Influenza H3N2 A/HK/7/87 infected in MDCK cells after 4 days by MTS assay. Type of series: toxicity, cell-based. Conditions: dog, read-out: Ratio CC50/EC50.

On to `Cc1c(C(=O)NN2C(=O)CSC23CCC(C(C)(C)C)CC3)[nH]c2ccc(Cl)cc12` (centres undefined), for which, in series [1], the MCC at 96 h was 0.8 µM. The EC50 with Influenza A virus H3N2 [2] and in the series with Influenza A virus H3N2 [4] was more than 100 µM in each case. Besides, in series [3], the 50% cytotoxic concentration (CC50) at 96 h is 2.1 µM.

As for `Cc1c(C(=O)NN2C(=O)C(C)SC23CCC(c2ccccc2)CC3)[nH]c2ccc(Cl)cc12` (centres undefined), the MCC at 96 h in series [1] was 1 µM. In addition, the EC50 in the series on Influenza A virus H3N2 [2] and in the series on Influenza A virus H3N2 [4] was more than 100 µM in each case. For the same compound, the CC50 at 96 h in series [3] worked out at 2.3 µM.

Turning to `CCOC(=O)c1c(CSc2ccccc2)n(C)c2cc(Br)c(O)c(CN(C)C)c12` [UMIFENOVIR], the EC50 in series [5] is 40 µM.

For the compound `Cc1c(C(=O)NN2C(=O)C(C)SC23CCCCC3)[nH]c2ccc(Cl)cc12` (centres undefined), in series [1], the MCC at 96 h is not below 4 µM. The EC50 was 0.063 µM in the series with Influenza A virus H3N2 [2], 1.3 µM in series [5] and 0.085 µM in the series on Influenza A virus H3N2 [4]. Further, the CC50 at 96 h in series [3] stood at 5.8 µM. Moreover, in series [6], the selectivity ratio at 96 h is 92.

`NC(=O)c1ncn([C@@H]2O[C@H](CO)[C@@H](O)[C@H]2O)n1` [RIBAVIRIN]: in series [1], the MCC at 96 h was not below 100 µM. Also, the EC50 worked out at 4.6 µM in the series on Influenza A virus H3N2 [2] and 8.4 µM with Influenza A virus H3N2 [4]. In addition, the CC50 at 96 h in series [3] is more than 100 µM.

For the compound `CCCC1CCC2(CC1)SCC(=O)N2NC(=O)c1[nH]c2ccc(Cl)cc2c1C` (centres undefined), the MCC at 96 h in series [1] is 0.8 µM. Further, the EC50 in the series on Influenza A virus H3N2 [2] and with Influenza A virus H3N2 [4] was more than 100 µM each time. In addition, in series [3], the CC50 at 96 h is 1.3 µM.

Consider `CCC1CCC2(CC1)SC(C)C(=O)N2NC(=O)c1[nH]c2ccc(Cl)cc2c1C` (centres undefined), for which the MCC at 96 h in series [1] came to 3 µM. Besides, the EC50 with Influenza A virus H3N2 [2] came to 0.00077 µM; in series [5], 0.88 µM; in the series with Influenza A virus H3N2 [4] it was 0.0012 µM. Also, the CC50 at 96 h in series [3] was found to be 1.5 µM. For the same compound, the selectivity ratio at 96 h in series [6] stood at 1950.

On to `Cc1c(C(=O)NN2C(=O)C(C)SC23CCC(C)CC3)[nH]c2ccc(Cl)cc12` (centres undefined), for which the MCC at 96 h in series [1] worked out at 0.87 µM. Besides, the results for the EC50 (with Influenza A virus H3N2 [2]; in series [5]; with Influenza A virus H3N2 [4]) were 0.045 µM, 2.1 µM and 0.063 µM, respectively. In series [3], the CC50 at 96 h was determined as 2.8 µM. In addition, the selectivity ratio at 96 h in series [6] came out at 62.

With `CCCC1CCC2(CC1)SC(C)C(=O)N2NC(=O)c1[nH]c2ccc(Cl)cc2c1C` (centres undefined), the MCC at 96 h in series [1] amounted to 0.8 µM. Also, the EC50 in the series with Influenza A virus H3N2 [2] and with Influenza A virus H3N2 [4] was more than 100 µM throughout. Besides, the CC50 at 96 h in series [3] amounted to 1.9 µM.

As to `Cc1c(C(=O)NN2C(=O)CSC23CCCCC3C)[nH]c2ccc(Cl)cc12` (centres undefined), in series [1], the MCC at 96 h was not below 20 µM. Moreover, the EC50 in the series with Influenza A virus H3N2 [2] and in the series with Influenza A virus H3N2 [4] was more than 100 µM throughout. Further, in series [3], the CC50 at 96 h is more than 100 µM.

For `Cc1c(C(=O)NN2C(=O)CSC23CC(C)CC(C)(C)C3)[nH]c2ccc(Cl)cc12` (centres undefined), in series [1], the MCC at 96 h was more than 100 µM. For the same compound, the EC50 in the series on Influenza A virus H3N2 [2] and in the series on Influenza A virus H3N2 [4] was more than 100 µM in each case. In addition, the CC50 at 96 h in series [3] is more than 100 µM.

On to `CC(C)(C)c1cc(O)ccc1O` [E319], for which the EC50 in series [5] turned out to be 9.9 µM.

`Cc1nc2sccn2c1C(=O)NN1C(=O)C(C)SC12CCC(C)CC2` (centres undefined): the MCC at 96 h in series [1] is not below 100 µM. The EC50 is 3.2 µM with Influenza A virus H3N2 [2], 1.1 µM in series [5] and 5 µM with Influenza A virus H3N2 [4]. Further, the CC50 at 96 h in series [3] is more than 100 µM. Moreover, the selectivity ratio at 96 h in series [6] was more than 31.

On to `Cc1c(C(=O)NN2C(=O)CSC23CCCCC3)[nH]c2ccc(Cl)cc12`, for which the MCC at 96 h in series [1] is more than 100 µM. In addition, the EC50 with Influenza A virus H3N2 [2] and in the series on Influenza A virus H3N2 [4] was more than 100 µM in each case. The CC50 at 96 h in series [3] was more than 100 µM.

As to `Cc1c(C(=O)NN2C(=O)CSC23CCC(C)CC3)[nH]c2ccc(Cl)cc12` (centres undefined), in series [1], the MCC at 96 h was not below 100 µM. Also, the EC50 in the series with Influenza A virus H3N2 [2] and with Influenza A virus H3N2 [4] was more than 100 µM in each case. In series [3], the CC50 at 96 h is more than 100 µM.

Consider `CCC1CCC2(CC1)SCC(=O)N2NC(=O)c1[nH]c2ccc(Cl)cc2c1C` (centres undefined), for which the MCC at 96 h in series [1] is not below 4 µM. In addition, the EC50 in the series with Influenza A virus H3N2 [2] and in the series with Influenza A virus H3N2 [4] was more than 100 µM each time. For the same compound, the CC50 at 96 h in series [3] worked out at 94 µM.

`Cc1c(C(=O)NN2C(=O)C(C)SC23CC(C)CC(C)(C)C3)[nH]c2ccc(Cl)cc12` (centres undefined): in series [1], the MCC at 96 h was 20 µM. Besides, the EC50 with Influenza A virus H3N2 [2] and in the series on Influenza A virus H3N2 [4] was more than 100 µM throughout. For the same compound, the CC50 at 96 h in series [3] worked out at 85 µM.

Regarding `Cc1c(C(=O)NN2C(=O)CSC23CCCC(C)C3)[nH]c2ccc(Cl)cc12` (centres undefined), in series [1], the MCC at 96 h was not below 100 µM. Also, the EC50 with Influenza A virus H3N2 [2] and in the series on Influenza A virus H3N2 [4] was more than 100 µM in each case. The cytotoxic concentration (CC50) at 96 h in series [3] was more than 100 µM.

For `Cc1c(C(=O)NN2C(=O)CSC23CCC(c2ccccc2)CC3)[nH]c2ccc(Cl)cc12` (centres undefined), the MCC at 96 h in series [1] was determined as 5 µM. Besides, the EC50 with Influenza A virus H3N2 [2] and in the series on Influenza A virus H3N2 [4] was more than 100 µM each time. For the same compound, the CC50 at 96 h in series [3] is 2.4 µM.

`NC12CC3CC(CC(C3)C1)C2` [AMANTADINE]: in series [1], the MCC at 96 h was more than 200 µM. For the same compound, the values for the EC50 in the series with Influenza A virus H3N2 [2] and in the series on Influenza A virus H3N2 [4] were 1.2 µM and 3.8 µM, respectively. Moreover, the CC50 at 96 h in series [3] was more than 200 µM.

On to `Cc1c(C(=O)NN2C(=O)C(C)SC23CCCCC3C)[nH]c2ccc(Cl)cc12` (centres undefined), for which the MCC at 96 h in series [1] is not below 20 µM. The EC50 in the series with Influenza A virus H3N2 [2] and in the series with Influenza A virus H3N2 [4] was more than 100 µM in each case. Also, the CC50 at 96 h in series [3] is 88 µM.

With `Cc1c(C(=O)NN2C(=O)C(C)SC23CCCC3)[nH]c2ccc(Cl)cc12` (centres undefined), the MCC at 96 h in series [1] is more than 100 µM. In addition, the EC50 in the series on Influenza A virus H3N2 [2] and with Influenza A virus H3N2 [4] was more than 100 µM throughout. For the same compound, the CC50 at 96 h in series [3] was more than 100 µM.

For the compound `Cc1c(C(=O)NN2C(=O)C(C)SC23CCCC(C)C3)[nH]c2ccc(Cl)cc12` (centres undefined), in series [1], the MCC at 96 h is not below 4 µM. Moreover, the results for the EC50 (in the series with Influenza A virus H3N2 [2]; in series [5]; with Influenza A virus H3N2 [4]) were 0.023 µM, 1.4 µM and 0.031 µM, respectively. The CC50 at 96 h in series [3] is 33 µM. Also, the selectivity ratio at 96 h in series [6] worked out at 1440.

Regarding `Cc1c(C(=O)NN2C(=O)CSC23CCCC3)[nH]c2ccc(Cl)cc12`, the MCC at 96 h in series [1] was more than 100 µM. The EC50 in the series with Influenza A virus H3N2 [2] and in the series on Influenza A virus H3N2 [4] was more than 100 µM throughout. The CC50 at 96 h in series [3] is more than 100 µM.

`Cc1c(C(=O)NN2C(=O)C(C)SC23CCC(C(C)(C)C)CC3)[nH]c2ccc(Cl)cc12` (centres undefined): the MCC at 96 h in series [1] is not below 4 µM. Also, the EC50 in the series with Influenza A virus H3N2 [2] and in the series with Influenza A virus H3N2 [4] was more than 100 µM in each case. Also, in series [3], the CC50 at 96 h is 0.9 µM.

The EC50 is the concentration needed to bring the measured effect to its halfway point. For orientation: CC50 means the concentration giving 50% cytotoxicity.

For the origin of these results see ChEMBL document CHEMBL4609985, “Superior inhibition of influenza virus hemagglutinin-mediated fusion by indole-substituted spirothiazolidinones” (Bioorg Med Chem, 2020).
